{"source": "paper PMC6934184", "about": "“Selective DNA-PKcs inhibition extends the therapeutic index of localized radiotherapy and chemotherapy” (The Journal of Clinical Investigation, 2019)", "biological_target": "T1, TEC (Homo sapiens, UniProt P42680)", "T1 construct": "purchased Thermo Fisher Scientific (Life Technologies) SelectScreen", "T1 sequence (P42680 whole entry)": "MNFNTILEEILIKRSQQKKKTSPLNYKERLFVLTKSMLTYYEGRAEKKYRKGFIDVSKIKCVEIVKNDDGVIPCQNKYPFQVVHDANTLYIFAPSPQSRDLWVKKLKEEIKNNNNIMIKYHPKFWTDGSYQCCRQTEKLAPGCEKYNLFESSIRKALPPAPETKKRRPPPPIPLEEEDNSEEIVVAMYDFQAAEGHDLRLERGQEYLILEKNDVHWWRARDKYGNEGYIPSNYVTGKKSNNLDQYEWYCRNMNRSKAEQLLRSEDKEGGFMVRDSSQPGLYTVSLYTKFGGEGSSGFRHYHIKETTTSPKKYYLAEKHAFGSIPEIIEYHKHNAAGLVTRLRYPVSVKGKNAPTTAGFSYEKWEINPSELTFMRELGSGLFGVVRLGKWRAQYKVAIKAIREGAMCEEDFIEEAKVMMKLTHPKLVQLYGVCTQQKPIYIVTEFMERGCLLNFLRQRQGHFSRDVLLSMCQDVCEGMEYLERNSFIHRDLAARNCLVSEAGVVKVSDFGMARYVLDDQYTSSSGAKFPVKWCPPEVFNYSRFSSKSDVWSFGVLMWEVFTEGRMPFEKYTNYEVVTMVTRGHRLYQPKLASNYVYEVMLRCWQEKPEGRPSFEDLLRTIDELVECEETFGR", "assay": "SelectScreen LanthaScreen", "assay_type": "binding", "conditions": "read-out: % displacement", "summary_of_the_method": "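Percent values come from Thermo SelectScreen profiling of NU5455, combining activity and binding assays. CSF1R was run in Z'LYTE format at Km app ATP, and CAMK1 in Adapta format with ATP listed at 10.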"}
{"compound": "CN(C(=O)CN1CCOCC1)c1ccc2sc3c(-c4cccc5c(=O)cc(N6CC7CCC(C6)O7)oc45)cccc3c2c1", "note": "[NU5455]", "values": [{"measurement": "inhibition at 1 µM", "result": 8.1, "unit": "%"}]}
